Data set [1] concerns melanoma cells (UACC 903 and 1205 Lu) and normal human fibroblasts (FF2441). In words: MTS cell viability assay, all the cell lines evaluated. The format is cell-based. The note with it: read-out: IC50s in all the cell lines evaluated. The text has this:
(§1) Tumour Biol 2017; 39(3):1010428317694565; Rao P C, et al., Cytotoxicity of withasteroids: withametelin induces cell cycle arrest at G2/M phase and mitochondria-mediated apoptosis in non-small cell lung cancer A549 cells. Tumour Biol 2016; 37(9):12579-87; Dinavahi S S, et al., Combined inhibition of PDE4 and PI3Kdelta modulates the inflammatory component involved in the progression of chronic obstructive pulmonary disease. Drug Res (Stuttg) 2014; 64(4):214-9). Briefly, 3,000 cells per well were plated in a 96-well plate and incubated overnight at 37° C. in a 5% CO2 atmosphere. […] 20 μL of MTS reagent was then added into each well and formation of […] was measured by absorbance after 1 hour at 492 nm. IC50 values for each experimental group were measured in 3 independent experiments using GraphPad Prism version 7.04 (GraphPad Software, La Jolla, CA).
Background: Tetrazolium assays rely on reduction of a dye to a coloured formazan, in cell work by metabolically active cells.

A further data set has as its target T1, ALDH3A1 (Homo sapiens, UniProt P30838).
T1 construct: purchased R & D Systems, Inc, Minneapolis, MN, USA
T1 sequence (P30838 1-453): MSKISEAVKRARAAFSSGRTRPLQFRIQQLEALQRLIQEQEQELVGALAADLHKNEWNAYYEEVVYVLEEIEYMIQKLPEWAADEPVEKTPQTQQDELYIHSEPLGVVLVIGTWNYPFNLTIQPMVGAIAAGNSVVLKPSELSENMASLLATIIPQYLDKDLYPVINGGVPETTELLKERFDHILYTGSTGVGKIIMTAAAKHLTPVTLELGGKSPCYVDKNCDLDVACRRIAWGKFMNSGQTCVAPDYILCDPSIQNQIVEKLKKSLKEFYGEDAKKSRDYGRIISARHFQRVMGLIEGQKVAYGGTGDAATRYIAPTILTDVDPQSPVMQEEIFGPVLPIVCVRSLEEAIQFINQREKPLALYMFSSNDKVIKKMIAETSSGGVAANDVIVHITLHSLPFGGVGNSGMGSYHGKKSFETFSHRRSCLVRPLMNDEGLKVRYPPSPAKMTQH
In words: ALDH isoform-specific enzyme assay, ALDH3A1 (NADH absorbance). The format is biochemical.

Data set [2] relates to total cellular ALDH activity, UACC 903 cell lysates. In words: Total cellular ALDH activity in cell lysates, UACC 903. In kind it is cell-based, human. The note with it: 1 uM, 15 minutes, UACC 903 and 1205 Lu cell lysates. The text has this:
The ALDHs reduce ROS, lipid peroxidation and toxic aldehyde accumulation, the latter of which can lead to cell damage and apoptosis as shown in FIG. 6A. Thus, inhibition of total cellular ALDH activity can increase toxic aldehydes, oxidative damage and apoptosis.

Data set [3] relates to UACC 903 and 1205 Lu cells. In words: Lipid peroxidation (TBARS), melanoma cells. The format is cell-based, human. Particulars: 5 μM, 24 hours, vs DMSO. From the text:
DMSO served as the vehicle control.

Data set [4] relates to UACC 903 and 1205 Lu cells. In words: ROS assay (DCFDA), melanoma cells. The format is cell-based, human. Particulars: 5 μM, 24 hours, vs DMSO.
Another data set deals with UACC 903 cells. In words: MTS cell viability assay, UACC 903. The note with it: 100 μM, 72 hours. In kind it is cell-based, human.
Another data set deals with T2, ALDH2 (Homo sapiens, UniProt P05091).
T2 construct: purchased R & D Systems, Inc, Minneapolis, MN, USA
T2 sequence (P05091 18-517): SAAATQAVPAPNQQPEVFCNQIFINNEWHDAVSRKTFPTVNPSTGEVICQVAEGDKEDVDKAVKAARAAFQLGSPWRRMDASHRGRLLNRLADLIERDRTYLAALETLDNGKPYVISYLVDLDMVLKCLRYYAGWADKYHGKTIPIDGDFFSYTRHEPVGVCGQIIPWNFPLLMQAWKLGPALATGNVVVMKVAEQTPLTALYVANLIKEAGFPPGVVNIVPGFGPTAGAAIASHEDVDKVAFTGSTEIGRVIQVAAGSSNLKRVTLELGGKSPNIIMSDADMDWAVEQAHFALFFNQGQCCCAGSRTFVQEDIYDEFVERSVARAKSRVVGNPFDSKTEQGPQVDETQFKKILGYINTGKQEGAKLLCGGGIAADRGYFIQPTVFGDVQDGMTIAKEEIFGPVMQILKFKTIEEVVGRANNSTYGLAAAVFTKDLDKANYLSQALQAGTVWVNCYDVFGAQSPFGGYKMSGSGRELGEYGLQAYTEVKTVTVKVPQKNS
In words: ALDH isoform-specific enzyme assay, ALDH2 (NADH absorbance). Particulars: read-out: IC50s ALDH2. The format is biochemical.

Another data set has as its target T3, ALDH1A1 (Homo sapiens, UniProt P00352).
T3 construct: purchased R & D Systems, Inc, Minneapolis, MN, USA
T3 sequence (P00352 1-501): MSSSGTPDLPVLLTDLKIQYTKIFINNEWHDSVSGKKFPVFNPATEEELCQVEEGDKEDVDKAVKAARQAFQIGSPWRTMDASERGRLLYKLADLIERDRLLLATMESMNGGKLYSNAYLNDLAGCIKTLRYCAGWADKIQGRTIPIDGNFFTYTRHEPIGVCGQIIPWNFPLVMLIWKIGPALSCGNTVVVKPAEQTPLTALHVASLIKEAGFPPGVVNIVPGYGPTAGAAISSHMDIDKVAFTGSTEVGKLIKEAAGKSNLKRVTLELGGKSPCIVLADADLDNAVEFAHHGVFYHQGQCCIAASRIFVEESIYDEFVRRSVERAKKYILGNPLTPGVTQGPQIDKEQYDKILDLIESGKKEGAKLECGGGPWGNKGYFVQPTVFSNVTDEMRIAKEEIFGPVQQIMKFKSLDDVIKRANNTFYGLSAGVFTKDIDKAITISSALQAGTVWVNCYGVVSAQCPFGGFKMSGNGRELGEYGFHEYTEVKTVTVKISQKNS
In words: ALDH isoform-specific enzyme assay, ALDH1A1 (NADH absorbance). The format is biochemical. The note with it: read-out: IC50s ALDH1A1.

The test system of data set [5] is colon cancer cell line HCT116. In words: Cell cycle by propidium iodide staining, HCT116. The note with it: reversed by addition of NAC. The format is cell-based.
Data set [6] deals with HCT116 colon cancer cells. In words: Apoptosis by Annexin-V/7-AAD, HCT116. The note with it: vs DMSO control or 3a. On the set-up: dose or concentration left out as unconfirmed. The format is cell-based.
Data set [7] concerns multiple myeloma cell lines (NCIH929, U266, RPMI8226, MM.1R). In words: MTS cell viability assay, multiple myeloma cells. The format is cell-based. Particulars: 72 hours, read-out: Average IC50s across all multiple myeloma cell lines tested.
Excerpt: as §1

In the next data set the test system is Swiss-Webster mice. In words: Toxicity study, 14 days. The note with it: 5 mg/kg/day i.p. for 14 days, vs DMSO. In kind it is in vivo, mouse. The protocol: To determine the toxicity of 3(h-l), compounds were injected i.p. into Swiss-Webster mice once daily for 14 days (Id.). Animals were monitored for changes in body weight, behavior and physical distress compared to DMSO control.

For data set [8], the system named is Colon cancer cells (HCT116 and HT29). In words: MTS cell viability assay, colon cancer cells. In kind it is cell-based. Particulars: HCT116 and HT29, 72 hours; read-out: Average IC50s across both colon cancer cell lines.
Excerpt: as §1

Data set [9] deals with colon cell lines (HCT116, HT29). In words: ROS assay (DCFDA) with or without NAC, Study 2. The format is cell-based.
Protocol: ROS activity was measured using DCFDA dye. […] Cells were incubated with 10 μM of DCFDA for 1 hour, and fluorescence was measured at 485 nm excitation and 510 nm emission. ROS levels in treated cells were compared to DMSO control.
Data set [10] concerns HCT116 colon cancer cell line. In words: Lipid peroxidation and toxic aldehyde accumulation (TBARS), Study 2.
Data set [11] has as its system colon cancer cell line, HCT116. In words: Cell survival MTS assay with addition of NAC. The format is cell-based.
Protocol: (§2) Briefly, 3,000 cells per well were plated in a 96-well plate and incubated overnight at 37° C. in a 5% CO2 atmosphere. […] 20 μL of MTS reagent was then added into each well and formation of tetrazolium was measured by absorbance after 1 hour at 492 nm. IC50 values for each experimental group were measured in 3 independent experiments using GraphPad Prism version 7.04 (GraphPad Software, La Jolla, CA).

Each structure is given as a SMILES string. Where a name gives a salt, the structure may show the parent alone. Read-outs that look alike come from different tables or passages of the source.

Protocol for ALDH1A1: (§3) ALDH enzyme assays were performed using a kit as described by the kit manufacturer (R & D Systems, Inc, Minneapolis, MN, USA). Isoform-specific aldehydes were converted to their respective carboxylic acids along with conversion of NAD+ to NADH (absorbance at 340 nm). […] Similarly, 0.5 μg/mL of ALDH2 was used in the reaction with 2 mM of acetaldehyde as the substrate and 0.2 μg/mL of ALDH3A1 was used in the reaction with 1 mM of 4-nitrobenzaldehyde (4-NBA) as the substrate following addition of ALDH inhibitors.
(§4) ALDH1A1, 2 and 3A1 enzyme assays were performed as described by the manufacturer (R & D systems). Isoform-specific aldehydes were converted to their respective carboxylic acids along with the conversion of NAD+ to NADH (absorbance at 340 nm).
Protocol for ALDH2: as §3, §4
Protocol for ALDH3A1: as §3, §4
Protocol for UACC 903 cells: Cell viability assays of UACC 903 cells transfected with siRNA, and melanoma cell lines (UACC 903, 1205 Lu, C8161.CI9, MelJuSo), FF2441 and NHEM cells treated with ALDH inhibitors were performed. For this, 5,000 cells per well were plated in a 96-well plate and incubated overnight at 37° C. in a 5% CO2 atmosphere. For the siRNA knockdown experiment, cells were incubated for another 72 hours. For the ALDH inhibitor experiments, cells were treated with agents at various concentrations and incubated for 72 hours. 20 μL of MTS reagent was then added into each well and formation of tetrazolium was measured by absorbance after 1 hour at 492 nm. IC50 values or % cells for each experimental group were measured in three independent experiments using GraphPad Prism version 7.04 (GraphPad Software, La Jolla, CA).
as §2

Regarding `O=C1C(=O)N(Cc2ccccc2)c2ccccc21` [Cpd 3], the IC50 in data set [1] was greater than 100 µM.
By inhibition is commonly meant the drop in the measured response relative to a control, in per cent. With `N=C(N)[Se]Cc1ccc(CN2C(=O)C(=O)c3cc(Br)ccc32)cc1` [Compound 4b, 2-[4-(5-Bromo-2,3-dioxo-2,3-dihydroindol-1-ylmethyl)benzyl]isoselenourea hydrobromide], at ALDH3A1 (read-out: % inhibition of ALDH3A1), the inhibition at 0.5 µM was no less than 60%.
`O=C1Nc2ccccc2C1=O` [Isatin]: the “effect on total cellular ALDH activity” value in data set [2] is recorded as “ineffective”.
For the compound `CCN(CC)c1ccc(C=O)cc1` [DEAB], the “lipid peroxidation and toxic aldehyde accumulation” value in data set [3] was “significantly increased lipid peroxidation and toxic aldehyde accumulation”. Moreover, in [4], the ROS levels result was “significantly increased ROS levels”. For the same compound, the IC50 on ALDH3A1 (as rounded in text, read-out: IC50 ALDH3A1) was determined as 15.1 µM; on ALDH3A1 (read-out: IC50s ALDH3A1), 15.1 µM. For the same compound, the “effect on total cellular ALDH activity” value in [2] is “significantly reduced”. For the same compound, the “reduction of UACC 903 cell survival” value in the data set on UACC 903 cells was determined as 30%.
With `Cc1nc2ccccc2n1S(=O)(=O)c1ccc(F)cc1` [CB7], the IC50 was found to be 144 µM at ALDH2 and 139 µM on ALDH1A1.
`Br.N=C(N)SCc1ccc(CN2C(=O)C(=O)c3cc(C(F)(F)F)ccc32)cc1` [Compound 3h, 2-[4-(2,3-Dioxo-5-trifluoromethyl-2,3-dihydroindol-1-ylmethyl)benzyl]isothiourea hydrobromide]: the cell cycle effect result in [5] is recorded as “G2/M arrest”. Further, the “percentage of cells both Annexin-V and 7-AAD positive” value in data set [6] is given as “significantly higher”. The IC50 is 1.9 µM in data set [7] and 5.3 µM in data set [8]. In the data set with Swiss-Webster mice, the weight loss entry is given as “no significant weight loss”. In addition, the ROS levels result in data set [9] (5 μM, 24 hours, vs DMSO) is recorded as “significantly increased ROS levels”. For the same compound, in data set [9] (with NAC), the “ROS-inducing activity on addition of N-Acetyl Cysteine (NAC)” value is reported as “abrogated”. In addition, the “lipid peroxidation and toxic aldehyde accumulation” value in data set [10] (5 μM, 24 hours, vs DMSO) is reported as “significantly increased”. Moreover, the “lipid peroxidation effect on addition of NAC” value in [10] (with NAC) is listed as “abrogated”. In addition, the “increase of cell killing IC50 on addition of NAC” value in [11] amounted to 6 fold.
Turning to `N=C(N)SCc1ccc(CN2C(=O)C(=O)c3cc(Cl)cc(Cl)c32)cc1` [Compound 3k, 2-[4-(5,7-Dichloro-2,3-dioxo-2,3-dihydroindol-1-ylmethyl)benzyl]isothiourea hydrobromide], the IC50 came out at 1.6 µM in data set [7] and 2.9 µM in [8].
In the case of `CCOC(=O)CSc1nc2c(sc3ccccc32)c(=O)n1CCCN1CCCC1` [CM037], the “lipid peroxidation and toxic aldehyde accumulation” value in [3] was “significantly increased lipid peroxidation and toxic aldehyde accumulation”. The ROS levels entry in data set [4] was “significantly increased ROS levels”. Also, in [2], the “effect on total cellular ALDH activity” value is given as “significantly reduced”.

These data come from US12616678B2, “Methods to of aldehyde dehydrogenases for treatment of cancer” (THE PENN STATE RESEARCH FOUNDATION, priority 2020, dated 2026).
